Measurements reported in patent publication US20230278984A1 (Global Blood Therapeutics, Inc., priority 2020, published 2023).

Target: T1, Human pyruvate kinase R (PKR) (Homo sapiens, UniProt P30613)
T1 construct: Human pyruvate kinase R (PKR), residues 14-574; 6x-His (N, cleaved yes); 8x-Arg (N, cleaved yes); SUMO (N, cleaved yes); host or cells: E. coli
Assay: Biochemical assay for activation of pyruvate kinase R (Kinase-Glo luminescence measurement of ATP generation)
Conditions: for AC50: PKR biochemical assay, 0.1 nM PKR, 0.3 mM ADP, 2 mM FBP, 0.1 mM PEP; for Emax: maximal activation level relative to the activation level achieved by the literature compound AG-348 @ 10 μM
How it was run: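 Recombinant human PKR (residues 14-574), E. coli-expressed with His-Arg-SUMO tag removed, purified by Ni-NTA, anion exchange and size exclusion. Activation measured as ATP generation via Kinase-Glo luminescence.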

T1 sequence (P30613 14-574): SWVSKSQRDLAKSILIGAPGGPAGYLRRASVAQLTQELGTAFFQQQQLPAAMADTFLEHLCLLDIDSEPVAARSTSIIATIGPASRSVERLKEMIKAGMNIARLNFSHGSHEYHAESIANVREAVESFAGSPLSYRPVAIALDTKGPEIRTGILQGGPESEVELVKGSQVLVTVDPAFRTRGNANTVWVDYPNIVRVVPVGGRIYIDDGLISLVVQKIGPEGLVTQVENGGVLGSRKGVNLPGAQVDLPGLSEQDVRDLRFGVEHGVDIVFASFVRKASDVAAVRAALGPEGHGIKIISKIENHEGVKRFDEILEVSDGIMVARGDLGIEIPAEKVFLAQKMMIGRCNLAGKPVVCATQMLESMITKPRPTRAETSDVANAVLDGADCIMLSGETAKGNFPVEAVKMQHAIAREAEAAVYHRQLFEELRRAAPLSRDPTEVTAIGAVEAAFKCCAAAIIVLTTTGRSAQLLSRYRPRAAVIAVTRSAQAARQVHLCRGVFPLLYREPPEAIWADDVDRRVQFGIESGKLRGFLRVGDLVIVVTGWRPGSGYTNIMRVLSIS

Row | AC50 [nM] | Emax [%] | SMILES
1 | 34 | 100 | Cc1nc(CNC(=O)NCc2nc(C)nn2-c2ccc(Cl)c(CO)c2)n(-c2ccc(Cl)c(F)c2)n1 [Compound 96, 1-({1-[4-chloro-3-(hydroxymethyl)phenyl]-3-methyl-1H-1,2,4-triazol-5-yl}methyl)-3-{[1-(4-chloro-3-fluorophenyl)-3-methyl-1H-1,2,4-triazol-5-yl]methyl}urea]
2 | 510 | 92 | COCCc1nc(CNC(=O)NCc2ncnn2-c2ccc3cccnc3c2)n(-c2ccc(Cl)c(F)c2)n1 [Compound 97, 1-{[1-(4-chloro-3-fluorophenyl)-3-(2-methoxyethyl)-1H-1,2,4-triazol-5-yl]methyl}-3-{[1-(quinolin-7-yl)-1H-1,2,4-triazol-5-yl]methyl}urea]
3 | 71 | 60 | O=C(NCc1ncnn1-c1ccc2cccnc2c1)NCc1n[nH]c(=O)n1-c1ccc(Cl)c(F)c1 [Compound 98, 3-{[4-(4-chloro-3-fluorophenyl)-5-oxo-4,5-dihydro-1H-1,2,4-triazol-3-yl]methyl}-1-{[1-(quinolin-7-yl)-1H-1,2,4-triazol-5-yl]methyl}urea]
4 | 510 | 106 | COCCc1nc(CNC(=O)NCc2nc(C)nn2-c2ccc3cccnc3c2)n(-c2ccc(Cl)c(F)c2)n1 [Compound 100]
5 | 93 | 77 | Cc1nc(CNC(=O)NCc2ncnn2-c2cc(F)c3nccnc3c2)n(-c2ccc(Cl)c(F)c2)n1 [Compound 101, 1-{[1-(4-chloro-3-fluorophenyl)-3-methyl-1H-1,2,4-triazol-5-yl]methyl}-3-{[1-(8-fluoroquinoxalin-6-yl)-1H-1,2,4-triazol-5-yl]methyl}urea]
6 | 35 | 71 | Cc1nc(CNC(=O)NCc2ncnn2-c2cc(F)c3ncccc3c2)n(-c2ccc(Cl)c(F)c2)n1 [Compound 102]
7 | 110 | 73 | Cc1nc(CNC(=O)NCc2ncnn2-c2cc(C)c3nccnc3c2)n(-c2ccc(Cl)c(F)c2)n1 [Compound 103, 1-{[1-(4-chloro-3-fluorophenyl)-3-methyl-1H-1,2,4-triazol-5-yl]methyl}-3-{[1-(8-methylquinoxalin-6-yl)-1H-1,2,4-triazol-5-yl]methyl}urea]
8 | 36 | 80 | O=C(NCc1ncnn1-c1ccc2cccnc2c1)NCc1nc(CF)nn1-c1ccc(Cl)c(F)c1 [Compound 104, 1-{[1-(4-chloro-3-fluorophenyl)-3-(fluoromethyl)-1H-1,2,4-triazol-5-yl]methyl}-3-{[1-(quinolin-7-yl)-1H-1,2,4-triazol-5-yl]methyl}urea]
9 | 880 | 59 | Cc1nc(CNC(=O)NCc2ncnn2-c2cc(C)c3cncnc3c2)n(-c2ccc(Cl)c(F)c2)n1 [Compound 105, 1-{[1-(4-chloro-3-fluorophenyl)-3-methyl-1H-1,2,4-triazol-5-yl]methyl}-3-{[1-(5-methylquinazolin-7-yl)-1H-1,2,4-triazol-5-yl]methyl}urea]
10 | 900 | 74 | Cc1nc(CNC(=O)NCc2ncnn2-c2cc(F)c3cncnc3c2)n(-c2ccc(Cl)c(F)c2)n1 [Compound 108, 1-{[1-(4-chloro-3-fluorophenyl)-3-methyl-1H-1,2,4-triazol-5-yl]methyl}-3-{[1-(5-fluoroquinazolin-7-yl)-1H-1,2,4-triazol-5-yl]methyl}urea]
11 | 140 | 105 | Cc1nc(CNC(=O)NCC2=NC3(CC3)C(=O)N2c2ccc3cccnc3c2)n(-c2ccc(Cl)c(F)c2)n1 [Compound 111, 1-{[1-(4-chloro-3-fluorophenyl)-3-methyl-1H-1,2,4-triazol-5-yl]methyl}-3-{[7-oxo-6-(quinolin-7-yl)-4,6-diazaspiro[2.4]hept-4-en-5-yl]methyl}urea]
12 | 802 | 126 | Cc1nc(CNC(=O)NCC2=NC3(CCC3)C(=O)N2c2ccc3cccnc3c2)n(-c2ccc(Cl)c(F)c2)n1 [Compound 112, 1-{[1-(4-chloro-3-fluorophenyl)-3-methyl-1H-1,2,4-triazol-5-yl]methyl}-3-{[8-oxo-7-(quinolin-7-yl)-5,7-diazaspiro[3.4]oct-5-en-6-yl]methyl}urea]
13 | 40 | 116 | Cc1nc(CNC(=O)NCc2ncnn2-c2cc(C)c3cccnc3c2)n(-c2ccc(Cl)c(F)c2)n1 [Compound 113, 1-{[1-(4-chloro-3-fluorophenyl)-3-methyl-1H-1,2,4-triazol-5-yl]methyl}-3-{[1-(5-methylquinolin-7-yl)-1H-1,2,4-triazol-5-yl]methyl}urea]
14 | 47 | 36 | COc1ccc(-n2ncnc2CNC(=O)NCc2ncnn2-c2ccc(Cl)c(F)c2)cn1 [Compound 118, 3-{[1-(4-chloro-3-fluorophenyl)-1H-1,2,4-triazol-5-yl]methyl}-1-{[1-(6-methoxypyridin-3-yl)-1H-1,2,4-triazol-5-yl]methyl}urea]
15 | 1100 | 31 | O=C(NCc1ncnn1-c1ccc(O)nc1)NCc1ncnn1-c1ccc(Cl)c(F)c1 [Compound 119, 3-{[1-(4-chloro-3-fluorophenyl)-1H-1,2,4-triazol-5-yl]methyl}-1-{[1-(6-hydroxypyridin-3-yl)-1H-1,2,4-triazol-5-yl]methyl}urea]
16 | 140 | 70 | COc1ccc(-n2ncnc2CNC(=O)NCc2nc(C)nn2-c2ccc(Cl)c(F)c2)cn1 [Compound 123, 3-{[1-(4-chloro-3-fluorophenyl)-3-methyl-1H-1,2,4-triazol-5-yl]methyl}-1-{[1-(6-methoxypyridin-3-yl)-1H-1,2,4-triazol-5-yl]methyl}urea]

Second part, the compound before the results:

Row | SMILES | AC50 [nM] | Emax [%]
17 | CNCc1cc(-n2nc(C)nc2CNC(=O)NCc2nc(C)nn2-c2ccc(Cl)c(F)c2)ccc1Cl [Compound 99, 1-[(1-{4-chloro-3-[(methylamino)methyl]phenyl}-3-methyl-1H-1,2,4-triazol-5-yl)methyl]-3-{[1-(4-chloro-3-fluorophenyl)-3-methyl-1H-1,2,4-triazol-5-yl]methyl}urea] | 69 | 69
18 | Cc1nc(CNC(=O)NCC2=NC3(CC3)C(=O)N2Cc2ccc(F)cc2)n(-c2ccc(Cl)c(F)c2)n1 [Compound 106, 1-{[1-(4-chloro-3-fluorophenyl)-3-methyl-1H-1,2,4-triazol-5-yl]methyl}-3-({6-[(4-fluorophenyl)methyl]-7-oxo-4,6-diazaspiro[2.4]hept-4-en-5-yl}methyl)urea] | 71 | 125
19 | O=C(NCc1nc(CF)nn1-c1ccc(Cl)c(F)c1)NCc1n[nH]c(=O)n1-c1ccc(Cl)c(F)c1 [Compound 107, 1-{[1-(4-chloro-3-fluorophenyl)-3-(fluoromethyl)-1H-1,2,4-triazol-5-yl]methyl}-3-{[4-(4-chloro-3-fluorophenyl)-5-oxo-4,5-dihydro-1H-1,2,4-triazol-3-yl]methyl}urea] | 30 | 107
20 | O=C(NCC1=NC2(CC2)C(=O)N1Cc1ccc(F)cc1)NCc1ncnn1-c1ccc(Cl)c(F)c1 [Compound 109, 1-{[1-(4-chloro-3-fluorophenyl)-1H-1,2,4-triazol-5-yl]methyl}-3-({6-[(4-fluorophenyl)methyl]-7-oxo-4,6-diazaspiro[2.4]hept-4-en-5-yl}methyl)urea] | 110 | 96
21 | O=C(NCC1=NC2(CC2)C(=O)N1Cc1ccc(F)cc1)NCc1ncnn1-c1ccc2cccnc2c1 [Compound 110, 3-({6-[(4-fluorophenyl)methyl]-7-oxo-4,6-diazaspiro[2.4]hept-4-en-5-yl}methyl)-1-{[1-(quinolin-7-yl)-1H-1,2,4-triazol-5-yl]methyl}urea] | 61 | 83
22 | Cc1ccc(-n2nnnc2CNC(=O)NCc2nnnn2-c2ccc(C)cc2F)c(F)c1 [Compound 114, 1,3-bis({[1-(2-fluoro-4-methylphenyl)-1H-1,2,3,4-tetrazol-5-yl]methyl})urea] | 670 | 61
23 | O=C(NCc1nnnn1-c1ccc(C(F)(F)F)cc1)NCc1nnnn1-c1ccc(C(F)(F)F)cc1 [Compound 115, 1,3-bis({1-[4-(trifluoromethyl)phenyl]-1H-1,2,3,4-tetrazol-5-yl}methyl)urea] | 1700 | 148
24 | O=C(NCc1ncnn1-c1ccc(Cl)nc1)NCc1ncnn1-c1ccc(Cl)nc1 [Compound 116, 1,3-bis({[1-(6-chloropyridin-3-yl)-1H-1,2,4-triazol-5-yl]methyl})urea] | 89 | 39
25 | COc1ccc(-n2ncnc2CNC(=O)NCc2ncnn2-c2ccc(OC)nc2)cn1 [Compound 117, 1,3-bis({[1-(6-methoxypyridin-3-yl)-1H-1,2,4-triazol-5-yl]methyl})urea] | 2600 | 53
26 | CCN(Cc1ncnn1-c1ccc(Cl)c(F)c1)C(=O)NCc1ncnn1-c1ccc(OC)nc1 [Compound 120, 3-{[1-(4-chloro-3-fluorophenyl)-1H-1,2,4-triazol-5-yl]methyl}-3-ethyl-1-{[1-(6-methoxypyridin-3-yl)-1H-1,2,4-triazol-5-yl]methyl}urea] | 220 | 51
27 | CCN(Cc1ncnn1-c1ccc(Cl)c(F)c1)C(=O)NCc1ncnn1-c1ccc(O)nc1 [Compound 121, 3-{[1-(4-chloro-3-fluorophenyl)-1H-1,2,4-triazol-5-yl]methyl}-3-ethyl-1-{[1-(6-hydroxypyridin-3-yl)-1H-1,2,4-triazol-5-yl]methyl}urea] | 7800 | 47
28 | CCN(Cc1ncnn1-c1ccc(OC)nc1)C(=O)NCc1ncnn1-c1ccc(Cl)c(F)c1 [Compound 122, 3-{[1-(4-chloro-3-fluorophenyl)-1H-1,2,4-triazol-5-yl]methyl}-1-ethyl-1-{[1-(6-methoxypyridin-3-yl)-1H-1,2,4-triazol-5-yl]methyl}urea] | 190 | 42
